# Target: PDGFR
# Test: PDGFR kinase HTRF assay
# Format: biochemical
# Details: 2.3 μM ATP, read-out: IC50 (μM) - Enzyme Inhibition Assays PDGFR
# Procedure: To determine inhibition of KDR, FGFR, EGFR, and PDGFR activity, kinase assays were conducted using an HTRF (Homogeneous Time Resolved Fluorescence) assay. This assay is described in A. J. Kolb et. al., Drug Discovery Today, 1998, 3(7), p 333.
# Kinase activity assays were performed in 96-well polypropylene plates (Falcon) with a total volume of 90 μL in each well. Each well contained 1 μM KDR substrate (Biotin-EEEEYFELVAKKKK), 1 nM activated KDR, and a test compound with one of 8 assay concentrations ranging from 100 μM to […] (1:5 serial dilution). The kinase activity assay was done in the presence of 100 mM HEPES, pH 7.4, 1 mM DTT, 0.1 mM Na2VO4, 25 mM MgCl2, 50 mM NaCl (from KDR stock solution), 1% DMSO (from compound), 0.3 mM ATP (at Km concentration) and 0.02% BSA. The reaction was incubated at 37° C. for 30 minutes. To stop the KDR reaction, 72 μL of reaction mixture was transferred into a STOP plate containing 18 μL of revelation buffer (20 mM EDTA, 50 mM HEPES, pH 7.4, 0.02% BSA, 10 nM Eu-labelled anti-pY antibody (final conc. 2 nM), and 100 nM streptavidin (final conc. 20 nM)). After mixing, 35 μL of solution was transferred into duplicate wells of a 384-well black plate (Costar), and read at 615/665 nm on a Wallac Victor 5 reader.
# The PDGFR kinase activity assay was performed with 1 μM substrate (Biotin-EEEEYFELV), 1.0 nM PDGFR, test compounds, 100 mM HEPES, pH 7.4, 1 mM DTT, 5 mM MgCl2, 2 mM MnCl2, 1% DMSO, 2.3 μM ATP (Km for PDGFR), 0.1 mM Na2VO4, and 0.02% BSA. The rest of the assay was performed in the same manner as the KDR assay.
# Compound IC50 values were determined from duplicate sets of data, and calculated by using Excel and fitting data to equation Y=[(a−b)/{1+(X/c)^d]+b, where a and b are enzyme activity in the presence of no test inhibitor compound and an infinite amount of inhibitor test compound, respectively, c is the IC50 and d is the hill constant of the compound response. The IC50 value is the concentration of test compound that reduces by 50% the enzyme activity under the test conditions described.
row,SMILES,IC50 [µM]
1,"COc1ccc(N2C(=O)N(c3cccc(C(N)=O)c3)c3nc(Nc4ccccc4)ncc3C2C)c(F)c1 (racemic) [Example 10, (±)-3-[3-(2-Fluoro-4-methoxy-phenyl)-4-methyl-2-oxo-7-phenylamino-3,4-dihydro-2H-pyrimido[4,5-d]pyrimidin-1-yl]-benzamide]",< 10
2,"COc1ccc(N2C(=O)N([C@H](C)CO)c3nc(Nc4ccccc4)ncc3[C@@H]2C)cc1 [Example 15b, 1-(2-Hydroxy-1-(R)-methyl-ethyl)-3-(4-methoxy-phenyl)-4-(S)-methyl-7-phenylamino-3,4-dihydro-1H-pyrimido[4,5-d]pyrimidin-2-one]",< 10
3,"COc1ccc(N2C(=O)N(c3ccc(OC)cc3)C(C)c3cnc(Nc4ccccc4)nc32)cc1 (racemic) [Example 4b, (±)-1,3-Bis-(4-methoxy-phenyl)-4-methyl-7-phenylamino-3,4-dihydro-1H-pyrimido[4,5-d]pyrimidin-2-one]",< 10
4,"COc1ccc(N2C(=O)N(c3cccc(C#N)c3)c3nc(Nc4ccccc4)ncc3C2C)c(F)c1 (racemic) [Example 9b, (±)-3-[3-(2-Fluoro-4-methoxy-phenyl)-4-methyl-2-oxo-7-phenylamino-3,4-dihydro-2H-pyrimido[4,5-d]pyrimidin-1-yl]-benzonitrile]",< 10
5,"COc1ccc(N2C(=O)N(c3ccccc3)c3nc(Nc4ccccc4)ncc3[C@@H]2C)cc1 (single isomer, unassigned) [Example 3]",< 10
6,"COc1ccc(N2C(=O)N(c3ccccc3)c3nc(Nc4ccccc4)ncc3C2C)c(F)c1 (racemic) [Example 8d, (±)-3-(2-Fluoro-4-methoxy-phenyl)-4-methyl-1-phenyl-7-phenylamino-3,4-dihydro-1H-pyrimido[4,5-d]pyrimidin-2-one]",< 10
7,"COc1ccc(N2C(=O)N(c3ccccc3)c3nc(Nc4ccccc4)ncc3C2C)cc1 (racemic) [Example 1g, (±)-3-(4-Methoxy-phenyl)-4-methyl-1-phenyl-7-phenylamino-3,4-dihydro-1H-pyrimido[4,5-d]pyrimidin-2-one]",< 10
8,"COc1ccc(N2C(=O)N(c3cccc(C(N)=O)c3)c3nc(Nc4ccccc4)ncc3C2C)cc1 (racemic) [Example 6, (±)-3-[3-(4-Methoxy-phenyl)-4-methyl-2-oxo-7-phenylamino-3,4-dihydro-2H-pyrimido[4,5-d]pyrimidin-1-yl]-benzamide]",< 10
9,"COc1ccc(N2C(=O)N(c3cccc(C#N)c3)c3nc(Nc4ccccc4)ncc3C2C)cc1 (racemic) [Example 5b, (±)-3-[3-(4-Methoxy-phenyl)-4-methyl-2-oxo-7-phenylamino-3,4-dihydro-2H-pyrimido[4,5-d]pyrimidin-1-yl]-benzonitrile]",< 10

# From patent publication US7112676B2, “Pyrimido compounds having antiproliferative activity” (Hoffmann-La Roche Inc., priority 2002, dated 2006)
